Test results as given in US6794402B2, “Bicyclic cyclohexylamines and their use as NMDA receptor antagonists” (Warner-Lambert Company, priority 2000, dated 2004).

How the values were obtained:
NR1A/NR2B NMDA receptor = NR1A/NR2B NMDA receptor (Rattus norvegicus, UniProt P35439+Q00960); experiment: Electrophysiological assay at NMDA receptor subunits expressed in Xenopus oocytes; assay type: cell-based; conditions: cloned rat NR1A/NR2B in Xenopus oocytes, two-electrode voltage clamp, glutamate 100 μM + glycine 1-100 μM; read-out: NR1A/NR2B Oocyte IC50
Chain of NR1A/NR2B NMDA receptor (Q00960 27-1482, other chains not shown): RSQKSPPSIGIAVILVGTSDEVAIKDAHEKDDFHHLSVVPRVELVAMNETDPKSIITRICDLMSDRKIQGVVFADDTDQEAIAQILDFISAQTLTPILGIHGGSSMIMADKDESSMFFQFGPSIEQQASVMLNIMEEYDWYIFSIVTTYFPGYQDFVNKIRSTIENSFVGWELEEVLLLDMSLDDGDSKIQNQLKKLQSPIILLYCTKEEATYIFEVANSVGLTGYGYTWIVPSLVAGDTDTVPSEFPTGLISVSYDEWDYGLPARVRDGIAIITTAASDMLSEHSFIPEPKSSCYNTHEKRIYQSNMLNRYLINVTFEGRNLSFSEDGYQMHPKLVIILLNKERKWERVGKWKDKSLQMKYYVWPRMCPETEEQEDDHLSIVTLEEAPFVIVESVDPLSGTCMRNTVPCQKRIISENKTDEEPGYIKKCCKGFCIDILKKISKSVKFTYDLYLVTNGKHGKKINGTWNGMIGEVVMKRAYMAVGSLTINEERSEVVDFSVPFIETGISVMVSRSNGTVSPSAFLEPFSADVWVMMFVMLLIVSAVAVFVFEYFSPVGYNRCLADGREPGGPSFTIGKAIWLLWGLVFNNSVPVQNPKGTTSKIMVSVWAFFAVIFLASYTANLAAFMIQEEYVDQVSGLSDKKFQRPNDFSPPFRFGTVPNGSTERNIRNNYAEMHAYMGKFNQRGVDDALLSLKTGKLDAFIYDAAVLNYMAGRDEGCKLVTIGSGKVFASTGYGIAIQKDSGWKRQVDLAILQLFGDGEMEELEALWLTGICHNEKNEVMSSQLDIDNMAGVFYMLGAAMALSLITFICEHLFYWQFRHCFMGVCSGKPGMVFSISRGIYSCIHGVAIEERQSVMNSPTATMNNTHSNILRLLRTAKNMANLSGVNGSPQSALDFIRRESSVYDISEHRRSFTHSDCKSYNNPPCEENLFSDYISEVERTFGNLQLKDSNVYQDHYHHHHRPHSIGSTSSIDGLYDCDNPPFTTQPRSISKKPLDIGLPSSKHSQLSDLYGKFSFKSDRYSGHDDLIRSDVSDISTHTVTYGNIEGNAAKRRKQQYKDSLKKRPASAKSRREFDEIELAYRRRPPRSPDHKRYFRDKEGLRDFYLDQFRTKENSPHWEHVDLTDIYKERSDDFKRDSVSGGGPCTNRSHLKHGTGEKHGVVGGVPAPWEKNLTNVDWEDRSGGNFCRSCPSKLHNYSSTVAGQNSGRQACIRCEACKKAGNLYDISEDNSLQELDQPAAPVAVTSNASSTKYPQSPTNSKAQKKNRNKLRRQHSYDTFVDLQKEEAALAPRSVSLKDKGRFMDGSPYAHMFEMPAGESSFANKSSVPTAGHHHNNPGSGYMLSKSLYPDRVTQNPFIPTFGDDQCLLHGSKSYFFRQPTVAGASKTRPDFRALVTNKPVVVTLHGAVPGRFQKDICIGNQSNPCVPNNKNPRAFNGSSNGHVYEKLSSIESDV
Excerpt: Preparation of RNA. cDNA clones encoding the NR1A, NR2A, NR2B, and NR2C rat NMDA receptor subtypes were used (see, Moriyoshi, supra., 1991; Kutsuwada et al., supra., 1992; Monyer et al., supra, 1992; Ikeda et al., FEBS Lett., 1992;313:34-38; Ishii et al., J. Biol. Chem., 1993;268:2836-2843 for details of these clones or their mouse homologs). The clones were transformed into appropriate host bacteria and plasmid preparations were made with conventional DNA purification techniques. A sample of each clone linearized by restriction enzyme digestion […] was synthesized with T3 RNA polymerase. The cRNA was diluted to 400 ng/μL and stored in 1-μL aliquots at −80° C. until injection.
The Xenopus oocyte expression system. Mature female Xenopus laevis were anaesthetized (20-40 minutes) using 0.15% 3-aminobenzoic acid ethyl ester (MS-222), and 2 to 4 ovarian lobes were surgically removed. Oocytes at developmental stages IV-VI (Dumont J. N., J. Morphol., 1972;136:153-180) were dissected from the ovary still surrounded by enveloping ovarian tissues. Follicle-enclosed oocytes were microinjected with 1:1 mixtures of NR1A:NR2A, 2B or 2C; injecting 1 to 10 ng of RNA encoding each receptor subunit. NR1A encoding RNA was injected alone at ˜20 ng. Oocytes were stored in Barth's medium containing (in mM): NaCl, 88; KCl, 1; CaCl2, 0.41; Ca (NO3)2, 0.33; MgSO4, 0.82; NaHCO3, 2.4; HEPES 5; pH 7.4, with 0.11 mg/mL gentamicin sulphate. While oocytes were still surrounded by enveloping ovarian tissues, the Barth's medium was supplemented with 0.1% bovine serum. Oocytes were defolliculated 1 to 2 days following injections by treatment with collagenase (0.5 mg/mL Sigma Type I for 0.5-1 hr)-(Miledi and Woodward, J. Phsyiol., (Lond) 1989;416:601-621) and subsequently stored in serum-free medium.
Electrical recordings were made using a conventional two-electrode voltage clamp (Dagan TEV-200) over periods ranging between 3 to 21 days following injection (Woodward et al., Mol. Pharmacol., 1992;41:89-103). Oocytes were placed in a 0.1-mL recording chamber continuously perfused (5 mL-15 mL min^−1) with frog Ringer's solution containing (in mM): NaCl, 115; KCL, 2; BaCl2, 1.8; HEPES, 5; and pH 7.4. Drugs were applied by bath perfusion. Using oocytes expressing different subunit combinations of NMDA receptor, NMDA currents were activated by co-application of glutamate (100 μM) and glycine (1-100 μM). Inhibitory potency of the novel antagonists was assessed on responses elicited by fixed concentrations of glutamate and glycine, by measuring reductions in current induced by progressively increasing concentrations of antagonist.
Concentration-inhibition curves were fit with Equation 1.
I/Icontrol=1/(1+([antagonist]/10−^pIC50)^n) Eq. 1
In which Icontrol is the current evoked by agonists alone, pIC50=−log IC50, IC50 is the concentration of antagonist that produced half maximal inhibition, and n is the slope factor (De Lean et al., Am. J. Physiol., 1978;235:E97-102). For incomplete curves, analysis by fitting was unreliable and IC50 values were calculated by simple regression over linear portions of the curves (Origin: Microcal Software).

[1] = tested on: 6-Hydroxydopamine-lesioned rats; experiment: 6-OHDA lesioned rat assay; assay type: in vivo; conditions: for 6-OHDA MED: minimum effective dose to potentiate contraversive rotation induced by L-DOPA methyl ester 10 mg/kg SC, 6-hour period; for 6-OHDA active/inactive at the given dose: statistically significant increase in contraversive rotations vs L-DOPA only
Protocol: 6-Hydroxydopamine-lesioned rats were used (see Ungerstedt U., Arbuthnott G. W., Quantitative recording of rotational behavior in rats after 6-hydroxy-dopamine lesions of the nigrostraiatal dopamine system. Brain Res., 1971;24(3):485-93). Adult male Sprague-Dawley rats were anesthetized with chloral hydrate and unilateral lesions of the nigrostriatal dopamine system were accomplished by infusion of 8 μg of 6-hydroxydopamine HBr (6-OHDA) into the right medial forebrain bundle. Rats were pretreated 30 minutes before surgery with desipramine HCl 25 mg/kg intraperitoneally (IP) to protect noradrenegic neurons, and pargyline 25 mg/kg IP to potentiate the effects of 6-OHDA. A minimum of 3 weeks after surgery, the rotational behavior induced by apomorphine HCL 50 μg/kg subcutaneously (SC) was assessed.
Rotational behavior was measured using an automatic rotometer system (Rotorat Rotational Activity System, MED Associates, Georgia, Vt.). Anti-parkinsonian activity was assessed as the ability of the compound to potentiate the contraversive rotation induced by L-DOPA methyl ester, 10 mg/kg SC, over a 6-hour period. Experiments were conducted using a crossover paradigm where each rat received either a vehicle plus L-DOPA, or the test compound plus L-DOPA, in randomized order. Rats were tested at 7-day intervals. In experiments in which the compound was tested orally, rats were food deprived for 16 hours. Statistical analysis between treatment groups were performed using a paired t-test. The results were reported in Table 1 as the minimum effective dose (MED) of compound (mg/kg) required to produce a statistically-significant increase in total contraversive rotations compared to rats receiving L-DOPA only.

[2] = target: T1, [3H]ifenprodil binding site, rat forebrain membranes (Rattus norvegicus, UniProt P35439+Q00960); experiment: [3H]Ifenprodil binding assay; conditions: 4 nM [3H]-ifenprodil, 2 hours at room temperature
T1 construct: membrane fraction was prepared from frozen adult rat forebrains; tissue Zivic-Miller Laboratories, Inc; host or cells: adult rat forebrain, washed buffy coat membrane fraction
T1 sequence (Q00960 27-1482, other chains not shown): as above
Outline: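 Washed rat forebrain buffy coat membranes (100-200 μg protein) were incubated with 4 nM [3H]ifenprodil in 20 mM HEPES-KOH pH 7.4 for 2 hours at room temperature, in triplicate, then filtered on PEI-soaked GF/B filters. Nonspecific binding was set with 1 mM ifenprodil. IC50 came from a one- or two-site competition fit.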

Q: With `O=c1[nH]c2ccc([C@H]3CC[C@H](NCCCc4ccccc4)CC3)cc2o1` [Example 1, 6-[trans-4-(3-Phenylpropylamino)cyclohexyl]-3H-benzoxazol-2-one] as the compound, how does the IC50 (NR1A/NR2B NMDA receptor) read?
A: Its IC50 is 30 nM.

Q: What about the melting point of the same compound?
A: Its melting point is 166 to 170 °C.

Q: What about the “6-OHDA MED” value [1] of the same compound?
A: The value was 30 mg/kg.

Q: What about the “6-OHDA active/inactive at the given dose” value [1] of the same compound?
A: Its value is “active”.

Q: And the IC50 [2]?
A: Its IC50 is 4 nM.

Q: With `O=c1[nH]c2ccc([C@H]3CC[C@H](NCCOc4ccc(F)cc4)CC3)cc2o1` [Example 2, 6-{trans-4-[2-(4-Fluorophenoxy)ethylamino]cyclohexyl}-3H-benzoxazol-2-one] as the compound, how does the IC50 (NR1A/NR2B NMDA receptor) read?
A: Its IC50 is 100 nM.

Q: What about the melting point of the same compound?
A: Its melting point is 172 to 176 °C.

Q: What about the “6-OHDA MED” value [1] of the same compound?
A: The value was 10.0 mg/kg.

Q: What about the “6-OHDA active/inactive at the given dose” value [1] of the same compound?
A: Its value is “active”.

Q: And the IC50 [2]?
A: Its IC50 is 40 nM.

Q: For `O=c1[nH]c2ccc([C@H]3CC[C@H](NCCOc4ccccc4)CC3)cc2o1` [Example 3, 6-[trans-4-(2-Phenoxyethylamino)cyclohexyl]-3H-benzoxazol-2-one], which IC50 (NR1A/NR2B NMDA receptor) is on record?
A: The IC50 was 100 nM.

Q: And the melting point?
A: The melting point was 159 to 162 °C.

Q: And the “6-OHDA MED” value [1]?
A: Its value is 10.0 mg/kg.

Q: And the “6-OHDA active/inactive at the given dose” value [1]?
A: The value was “active”.

Q: With `O=c1[nH]c2ccc([C@H]3CC[C@H](NCCCc4ccc(F)cc4)CC3)cc2o1` [Example 4a, 6-{trans-4-[3-(4-Fluorophenyl)propylamino]cyclohexyl}-3H-benzoxazol-2-one] as the compound, how does the IC50 (NR1A/NR2B NMDA receptor) read?
A: The IC50 was 20 nM.

Q: And the “6-OHDA MED” value [1]?
A: Its value is > 10.0 mg/kg.

Q: What about the “6-OHDA active/inactive at the given dose” value [1] of the same compound?
A: The value was “inactive”.

Q: What about the IC50 [2] of the same compound?
A: Its IC50 is 7 nM.

Q: For `O=c1[nH]c2ccc([C@H]3CC[C@H](NCCNc4ccccc4)CC3)cc2o1` [Example 7, 6-[trans-4-(2-Phenylaminoethylamino)cyclohexyl]-3H-benzoxazol-2-one], which IC50 (NR1A/NR2B NMDA receptor) is on record?
A: Its IC50 is 90 nM.

Q: What about the melting point of the same compound?
A: The melting point was 293 to 295 °C.

Q: What about the IC50 [2] of the same compound?
A: The IC50 was 37 nM.

Q: With `C[C@@H](CCc1ccccc1)N[C@H]1CC[C@H](c2ccc3[nH]c(=O)oc3c2)CC1` [Example 10, 6-{trans-4-[(S)-1-Methyl-3-phenylpropylamino]cyclohexyl}-3H-benzoxazol-2-one] as the compound, how does the IC50 (NR1A/NR2B NMDA receptor) read?
A: The IC50 was 110 nM.

Q: And the melting point?
A: Its melting point is 174 to 176 °C.

Q: And the IC50 [2]?
A: Its IC50 is 49 nM.

Q: Which results are given for `COc1ccc([C@H](O)[C@H](C)N[C@H]2CC[C@@H](c3ccc4[nH]c(=O)oc4c3)CC2)cc1` [Example 11b, 6-{cis-4-[(1S,2S)-2-Hydroxy-2-(4-methoxyphenyl)-1-methylethylamino]-cyclohexyl}-3H-benzoxazol-2-one]?
A: IC50 (NR1A/NR2B NMDA receptor): 10000 nM; IC50 [2]: > 1000 nM

Q: For `Cc1ccc(CCCN[C@H]2CC[C@@H](c3ccc4[nH]c(=O)oc4c3)CC2)cc1` [Example 13a, 6-[cis-4-(3-p-Tolylpropylamino)cyclohexyl]-3H-benzoxazol-2-one], which IC50 (NR1A/NR2B NMDA receptor) is on record?
A: The IC50 was 80 nM.

Q: And the IC50 [2]?
A: Its IC50 is 38 nM.

Q: With `Cc1ccc(CCCN[C@H]2CC[C@H](c3ccc4[nH]c(=O)oc4c3)CC2)cc1` [Example 13b, 6-[trans-4-(3-p-Tolylpropylamino)cyclohexyl]-3H-benzoxazol-2-one] as the compound, how does the IC50 (NR1A/NR2B NMDA receptor) read?
A: The IC50 was 20 nM.

Q: What about the IC50 [2] of the same compound?
A: The IC50 was 5 nM.

Q: For `O=c1[nH]c2ccc([C@H]3CC[C@H](NCC[S+]([O-])c4ccccc4)CC3)cc2o1` (stereo partly drawn) [Example 15, 6-[trans-4-(2-Benzenesulfinylethylamino)cyclohexyl]-3H-benzoxazol-2-one], which IC50 (NR1A/NR2B NMDA receptor) is on record?
A: Its IC50 is 460 nM.

Q: What about the IC50 [2] of the same compound?
A: The IC50 was 92 nM.

Q: Which results are given for `O=c1[nH]c2ccc([C@H]3CC[C@H](NCCS(=O)(=O)c4ccccc4)CC3)cc2o1` [Example 16, 6-[trans-4-(2-Benzenesulfonylethylamino)cyclohexyl]-3H-benzoxazol-2-one]?
A: IC50 (NR1A/NR2B NMDA receptor): 2500 nM; IC50 [2]: 1730 nM

Q: Which IC50 (NR1A/NR2B NMDA receptor) does the source give for `CN(CCCc1ccc(F)cc1)[C@H]1CC[C@H](c2ccc3[nH]c(=O)oc3c2)CC1` [Example 18, 6-(trans-4-{[3-(4-Fluorophenyl)propyl]methylaamino}cyclohexyl)-3H-benzoxazol-2-one] here?
A: Its IC50 is 65 nM.

Q: What about the melting point of the same compound?
A: Its melting point is 62 to 65 °C.

Q: What about the “6-OHDA MED” value [1] of the same compound?
A: The value was 10 mg/kg.

Q: What about the “6-OHDA active/inactive at the given dose” value [1] of the same compound?
A: Its value is “active”.

Q: What about the IC50 [2] of the same compound?
A: The IC50 was 9 nM.
